Laboratory results: PubChem BioAssay (NCI)
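48-hour exposure; five concentrations; linearly interpolated endpoints. TGI denotes the concentration required for complete inhibition of growth.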

Tests used:
Assay in all cases: DTP human tumour cell line panel, 48 h
[1] = tested on: 786-0 renal
[2] = tested on: A549 NSCLC
[3] = tested on: ACHN renal
[4] = tested on: CCRF-CEM leukemia
[5] = tested on: COLO 205 colon
[6] = tested on: DLD-1 colon
[7] = tested on: DMS 114 small cell lung
[8] = tested on: DMS 273 small cell lung
[9] = tested on: EKVX NSCLC
[10] = tested on: HCC-2998 colon
[11] = tested on: HCT-116 colon
[12] = tested on: HCT-15 colon
[13] = tested on: HL-60(TB) leukemia
[14] = tested on: HOP-62 NSCLC
[15] = tested on: HT29 colon
[16] = tested on: IGROV1 ovarian
[17] = tested on: K-562 leukemia
[18] = tested on: KM12 colon
[19] = tested on: KM20L2 colon
[20] = tested on: LOX IMVI melanoma
[21] = tested on: LXFL 529 NSCLC
[22] = tested on: M14 melanoma
[23] = tested on: M19-MEL melanoma
[24] = tested on: MALME-3M melanoma
[25] = tested on: MOLT-4 leukemia
[26] = tested on: NCI-H23 lung
[27] = tested on: NCI-H460 lung
[28] = tested on: NCI-H522 lung
[29] = tested on: OVCAR-3 ovarian
[30] = tested on: OVCAR-4 ovarian
[31] = tested on: OVCAR-5 ovarian
[32] = tested on: OVCAR-8 ovarian
[33] = tested on: RPMI-8226 leukemia
[34] = tested on: RXF 393 renal
[35] = tested on: SF-295 CNS
[36] = tested on: SF-539 CNS
[37] = tested on: SK-MEL-2 melanoma
[38] = tested on: SK-MEL-28 melanoma
[39] = tested on: SK-MEL-5 melanoma
[40] = tested on: SK-OV-3 ovarian
[41] = tested on: SN12C renal
[42] = tested on: SNB-19 CNS
[43] = tested on: SNB-75 CNS
[44] = tested on: SNB-78 CNS
[45] = tested on: SR leukemia
[46] = tested on: SW-620 colon
[47] = tested on: TK-10 renal
[48] = tested on: U251 CNS
[49] = tested on: UACC-257 melanoma
[50] = tested on: UACC-62 melanoma
[51] = tested on: UO-31 renal
[52] = tested on: XF 498 CNS
[53] = tested on: HOP-92 NSCLC
[54] = tested on: SF-268 CNS
[55] = tested on: CAKI-1 renal

`CC(C)(C)C1=Nc2c(Br)cc(C(C)(C)C)cc2C(C(F)(F)F)(C(F)(F)F)O1` was tested, and the TGI [1] was greater than 100 µM, the TGI [2] was greater than 100 µM and the TGI [3] was greater than 100 µM. It also gave a TGI [4] greater than 100 µM, a TGI [5] greater than 100 µM and a TGI [6] greater than 100 µM. It also gave a TGI [7] of 86.3 µM, a TGI [8] greater than 100 µM and a TGI [9] greater than 100 µM. It also gave a TGI [10] of 65.1 µM, a TGI [11] greater than 100 µM and a TGI [12] greater than 100 µM. It also gave a TGI [13] of 47.4 µM, a TGI [14] greater than 100 µM and a TGI [15] greater than 100 µM. The TGI [16] was greater than 100 µM, the TGI [17] was greater than 100 µM and the TGI [18] was greater than 100 µM. It also gave a TGI [19] greater than 100 µM, a TGI [20] of 31.3 µM and a TGI [21] greater than 100 µM. The TGI [22] was greater than 100 µM, the TGI [23] was greater than 100 µM and the TGI [24] was greater than 100 µM. The TGI [25] was greater than 100 µM, the TGI [26] was greater than 100 µM and the TGI [27] was greater than 100 µM. For the same compound, the TGI [28] was greater than 100 µM, the TGI [29] was 37 µM and the TGI [30] was greater than 100 µM. It also gave a TGI [31] greater than 100 µM, a TGI [32] greater than 100 µM and a TGI [33] of 66.3 µM. The TGI [34] was 43.5 µM, the TGI [35] was greater than 100 µM and the TGI [36] was greater than 100 µM. The TGI [37] was greater than 100 µM, the TGI [38] was greater than 100 µM and the TGI [39] was greater than 100 µM. For the same compound, the TGI [40] was greater than 100 µM, the TGI [41] was greater than 100 µM and the TGI [42] was greater than 100 µM. It also gave a TGI [43] greater than 100 µM, a TGI [44] greater than 100 µM and a TGI [45] greater than 100 µM. It also gave a TGI [46] greater than 100 µM, a TGI [47] greater than 100 µM and a TGI [48] of 44.7 µM. For the same compound, the TGI [49] was greater than 100 µM, the TGI [50] was greater than 100 µM and the TGI [51] was greater than 100 µM. It also gave a TGI [52] of 59.4 µM.

`COc1ccc(N2C(Cl)C(=O)C2c2c[nH]c3ccccc23)cc1` (centres undefined) showed a TGI [2] greater than 100 µM, a TGI [4] greater than 100 µM and a TGI [5] greater than 100 µM. It also gave a TGI [7] greater than 100 µM, a TGI [9] greater than 100 µM and a TGI [11] greater than 100 µM. For the same compound, the TGI [13] was greater than 100 µM, the TGI [14] was greater than 100 µM and the TGI [53] was greater than 100 µM. It also gave a TGI [15] greater than 100 µM, a TGI [16] greater than 100 µM and a TGI [17] greater than 100 µM. For the same compound, the TGI [18] was greater than 100 µM, the TGI [19] was greater than 100 µM and the TGI [21] was greater than 100 µM. The TGI [22] was greater than 100 µM, the TGI [23] was greater than 100 µM and the TGI [24] was greater than 100 µM. The TGI [25] was greater than 100 µM, the TGI [26] was greater than 100 µM and the TGI [27] was greater than 100 µM. For the same compound, the TGI [28] was greater than 100 µM, the TGI [29] was greater than 100 µM and the TGI [30] was greater than 100 µM. The TGI [31] was greater than 100 µM, the TGI [32] was greater than 100 µM and the TGI [33] was greater than 100 µM. The TGI [34] was greater than 100 µM, the TGI [54] was greater than 100 µM and the TGI [35] was greater than 100 µM. The TGI [36] was greater than 100 µM, the TGI [37] was greater than 100 µM and the TGI [38] was greater than 100 µM. It also gave a TGI [39] greater than 100 µM, a TGI [40] greater than 100 µM and a TGI [41] greater than 100 µM. The TGI [42] was greater than 100 µM, the TGI [43] was greater than 100 µM and the TGI [45] was greater than 100 µM. The TGI [46] was greater than 100 µM, the TGI [47] was greater than 100 µM and the TGI [48] was greater than 100 µM. The TGI [49] was greater than 100 µM, the TGI [50] was greater than 100 µM and the TGI [51] was greater than 100 µM. It also gave a TGI [52] greater than 100 µM.

Work on `COc1cccc(/C=C(\NC(C)=O)c2nc3ccc(Cl)cc3[nH]2)c1` yielded a TGI [1] greater than 100 µM, a TGI [2] greater than 100 µM and a TGI [3] greater than 100 µM. It also gave a TGI [55] greater than 100 µM, a TGI [4] greater than 100 µM and a TGI [5] greater than 100 µM. For the same compound, the TGI [6] was greater than 100 µM, the TGI [7] was greater than 100 µM and the TGI [9] was greater than 100 µM. The TGI [10] was greater than 100 µM, the TGI [12] was greater than 100 µM and the TGI [53] was greater than 100 µM. For the same compound, the TGI [15] was greater than 100 µM, the TGI [16] was greater than 100 µM and the TGI [17] was greater than 100 µM. The TGI [18] was greater than 100 µM, the TGI [19] was greater than 100 µM and the TGI [21] was greater than 100 µM. For the same compound, the TGI [22] was greater than 100 µM, the TGI [23] was greater than 100 µM and the TGI [24] was greater than 100 µM. For the same compound, the TGI [25] was greater than 100 µM, the TGI [26] was greater than 100 µM and the TGI [28] was greater than 100 µM. It also gave a TGI [29] greater than 100 µM, a TGI [30] greater than 100 µM and a TGI [31] greater than 100 µM. The TGI [32] was greater than 100 µM, the TGI [34] was greater than 100 µM and the TGI [54] was greater than 100 µM. For the same compound, the TGI [35] was greater than 100 µM, the TGI [36] was greater than 100 µM and the TGI [37] was greater than 100 µM. For the same compound, the TGI [38] was greater than 100 µM, the TGI [39] was greater than 100 µM and the TGI [40] was greater than 100 µM. The TGI [41] was greater than 100 µM, the TGI [42] was greater than 100 µM and the TGI [44] was greater than 100 µM. It also gave a TGI [45] greater than 100 µM, a TGI [46] greater than 100 µM and a TGI [47] greater than 100 µM. For the same compound, the TGI [48] was greater than 100 µM, the TGI [50] was greater than 100 µM and the TGI [51] was greater than 100 µM. The TGI [52] was greater than 100 µM.
